The target of one assay is T1, intracellular Tat (Human immunodeficiency virus type 1 group M subtype B, UniProt P69697).
T1 construct: pTatC6H-1 (NIH AIDS Reagent Program) plasmid encoding C-terminal 6xHistidine Tat1-86 (HXB3, subtype B); made in house; host or cells: E. coli BL21 (plasmid pTatC6H-1, NIH AIDS Reagent Program)
As to the kind of experiment: Steady state of recombinant Tat in HeLa-CD4-LTR-Luc cells (Western blot). The note with it: 6 hours with compound, MG132 10 μM. In kind it is cell-based, HIV-1. The procedure:
FIG 5 dCA stabilizes Tat structure. (A) Trp fluorescence assays. (Left) Schematic of the assay. (Center) DMSO, dCA (7.5× Tat concentration) or raltegravir (Ralt.; 7.5× Tat concentration) was incubated with Tat. The fluorescence of the Trp^11 of Tat protein was measured at the indicated wavelengths. Acrylamide (250 mM) was used as a quenching control of Tat fluorescence. (Right) Peak absorbance (λmax) versus increasing fold ratios of compounds to Tat protein. Data are representative of n = 3 independent experiments. (B) DARTS assays. Tat was incubated with DMSO or dCA, at increasing concentrations, in the presence of increasing concentrations of proteinase K (PK). […] Data are representative of n = 2 independent experiments. (C) Steady state of Tat in the presence of dCA in vivo. HeLa-CD4-LTR-Luc cells were incubated with recombinant Tat and then washed and incubated with the indicated compounds for 6 hours. […] (Left) Western blot representative of n = 4 independent experiments. MG132 was used as a positive control of Tat protection from degradation, and raltegravir was used as a negative control. (Right) Densitometry of the Tat band normalized to the actin band. Results represent the mean ± SEM from n = 4 independent experiments. Statistical significance was determined using one-way ANOVA with post hoc Tukey’s test. ns, not significant; ***, P < 0.0001; **, P < 0.001.
Next, we determined the half-life of recombinant Tat in HeLa-CD4-LTR-Luc cells in the presence of dCA (Fig. 5C). We incubated recombinant Tat with cells for 4 hours, and after several washes to remove extracellular Tat protein, we incubated cells with DMSO, dCA, or raltegravir for an additional 6 hours. Western blotting with anti-His antibody was performed to reveal intracellular Tat. […]
Half-life of Tat in vivo. […] Total protein concentration was assessed by Bradford assay and Tat protein in each condition determined by western blot with an anti-His antibody at 1:1500 dilution (Thermofisher). […]
In general terms: A western blot detects proteins with antibodies after separation by electrophoresis.

The next assay concerns the target T2, Pep B-TAR interaction (Human immunodeficiency virus type 1 group M subtype B, UniProt P20879).
T2 construct: Pep B is a peptide encompassing the basic domain of HIV Tat (^45ISYGRKKRRQRRRAP^59)
As to the kind of experiment: EMSA of Tat's basic peptide (Pep B) with TAR. Type of assay: biochemical, HIV-1. The note with it: Tat basic peptide residues 45 to 59. From the text: FIG 6 dCA binding to Tat disrupts Tat-TAR interaction. (A) EMSA of full-length Tat with TAR in the presence of dCA. Raltegravir (Ralt.) and deleted bulge TAR (ΔTAR) were used as negative controls. Data are representative of n = 3 independent experiments. (B) EMSA of Tat’s basic domain with TAR in the presence of increasing concentrations of dCA to Tat’s basic peptide. Pep B is a peptide encompassing the basic domain of HIV Tat (^45ISYGRKKRRQRRRAP^59). Pep C (^69LSKQPASQPRGDPTG^83) and unlabeled or cold TAR (TARc) were used as negative controls. Neomycin, which binds to Tat and TAR, was used as a positive control. Ratios of compounds (or TARc) concentrations to peptide are shown. Data are representative of n = 3 independent experiments. […] Shown are ITC results from binding of dCA (left) or Tat peptide (right) to TAR at 25°C. […] For the lower plots, results were converted to molar heats and plotted against the molar ratio of dCA or peptide to RNA. Data are representative of n = 2 independent experiments. (D) Tat-TAR interaction blocked by dCA in HeLa-CD4-LTR-Luc cells in vivo. Cells transfected with Tat or Tat Mut (arginine residues mutated to alanine in Tat’s basic domain) were incubated with DMSO or the indicated compounds (25 nM). Forty-eight hours later, cells were either lysed to determine the luciferase activity or cross-linked for ChIP assays. Luciferase activity was determined relative to protein concentration (Bradford assay) (Fig. S9A). Western blotting was performed to verify the amount of Tat under each condition (Fig. S9B). ChIP of Tat was followed by qRT-PCR of TAR DNA. The results are presented as percentage of input. The mean ± SEM is represented. Data are representative of n = 3 independent experiments. Statistical significance was determined using one-way ANOVA with post hoc Tukey’s test with 3 technical replicates. ns, not significant; ***, P < 0.0001.
We also performed the same experiment with a peptide encompassing the basic domain of Tat (Pep B; residues 45 to 59) and dCA.
EMSA With full-length Tat: similar protocol was performed as in Das et al. (60). […]

T1 sequence (P69697 whole entry): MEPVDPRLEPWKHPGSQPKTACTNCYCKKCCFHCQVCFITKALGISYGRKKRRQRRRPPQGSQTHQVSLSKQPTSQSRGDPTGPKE

Consider `CN(C)C1CC23CCC4(O2)C(=CCC2(C)C(c5ccc6ccncc6c5)=CCC24)C=C3C(O)C1O` (stereo not shown) [dCA, didehydro-cortistatin A], for which the “percentage of remaining Tat” value on intracellular Tat came out at 40%. On Pep B-TAR interaction, the “inhibition of Pep B-TAR interaction (EMSA)” value is “inhibited the interaction of Pep B with TAR in a dose-dependent manner”.

As for `Cc1nnc(C(=O)NC(C)(C)c2nc(C(=O)NCc3ccc(F)cc3)c(O)c(=O)n2C)o1` [raltegravir, reference compound], the “percentage of remaining Tat” value at intracellular Tat amounted to 28%. Besides, the “inhibition of Pep B-TAR interaction (EMSA)” value at Pep B-TAR interaction is “did not compete”.
